Reference: ChEMBL document CHEMBL1201862, “PubChem BioAssay data set” (2004)
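Values below derive from 48-hour exposures of cells grown in 96-well plates, with endpoints linearly interpolated between the two concentrations bracketing the appropriate inhibition level. Here, GI50 denotes the concentration required for 50% inhibition of growth.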 Calls of active or inactive are those of the source. Rule as the data show it: active = GI50 up to about 1.1 µM and inactive = higher.

Assays:
Experiment in all cases: growth of human tumour cells (NCI), 48 h
[1] = tested on: PC-3
[2] = tested on: COLO 205
[3] = tested on: MOLT-4
[4] = tested on: HCC 2998
[5] = tested on: RPMI-8226
[6] = tested on: HOP-62
[7] = tested on: BT-549
[8] = tested on: SR
[9] = tested on: IGROV-1
[10] = tested on: NCI-H23
[11] = tested on: HT-29
[12] = tested on: DMS-273
[13] = tested on: SNB-19
[14] = tested on: DU-145
[15] = tested on: A498
[16] = tested on: NCI/ADR-RES
[17] = tested on: OVCAR-4
[18] = tested on: TK-10
[19] = tested on: SNB-75
[20] = tested on: RXF 393

Structure (SMILES)	GI50 [1]	GI50 [2]	GI50 [3]	GI50 [4]	GI50 [5]	GI50 [6]	GI50 [7]	GI50 [8]	GI50 [9]	GI50 [10]	GI50 [11]	GI50 [12]	GI50 [13]	GI50 [14]	GI50 [15]	GI50 [16]	GI50 [17]	GI50 [18]	GI50 [19]	GI50 [20]
CC[C@]1(O)C[C@H]2CN(CCc3c([nH]c4ccccc34)[C@@](C(=O)OC)(c3cc4c(cc3OC)N(C)[C@H]3[C@@](O)(C(=O)OC)[C@H](OC(C)=O)[C@]5(CC)C=CCN6CC[C@]43[C@@H]65)C2)C1	0.412 nM (active)	0.435 nM (active)	0.736 nM (active)	0.959 nM (active)	0.679 nM (active)	0.832 nM (active)	1.26 nM (active)	0.425 nM (active)	1.29 nM (active)	0.678 nM (active)	0.408 nM (active)	0.375 nM (active)	1.15 nM (active)	0.395 nM (active)	2.52 nM (active)	115 nM (active)	136 nM (active)			
Cc1ccc(S(=O)(=O)N2c3ccccc3[C@H]3CCC=C[C@H]32)cc1	11200 nM (inactive)	3940 nM (inactive)	4810 nM (inactive)	8110 nM (inactive)	6550 nM (inactive)	7460 nM (inactive)	8910 nM (inactive)	3030 nM (inactive)	10600 nM (inactive)	8280 nM (inactive)	3450 nM (inactive)	3660 nM (inactive)	25600 nM (inactive)	20300 nM (inactive)	6400 nM (inactive)		17300 nM (inactive)	13700 nM (inactive)	5050 nM (inactive)	3610 nM (inactive)
N#CC1(C2SCC[S+]2[O-])C2=C(C(=O)c3ccccc3C2=O)N2CCCC21 (stereo unspecified)	1880 nM (inactive)	2240 nM (inactive)	3060 nM (inactive)	4850 nM (inactive)	1050 nM (active)	5280 nM (inactive)	2290 nM (inactive)	935 nM (active)	1750 nM (inactive)	1110 nM (active)	3590 nM (inactive)	3030 nM (inactive)	6350 nM (inactive)	2180 nM (inactive)	4070 nM (inactive)	3120 nM (inactive)	1700 nM (inactive)	8770 nM (inactive)	3230 nM (inactive)	998 nM (active)
CCCCCCCCCCCCCCCCSS(C)(=O)=O	> 100000 nM (inactive)	19200 nM (inactive)	1390 nM (inactive)	> 53600 nM (inactive)	5000 nM (inactive)	> 100000 nM (inactive)	4420 nM (inactive)	4650 nM (inactive)	32400 nM (inactive)	42800 nM (inactive)	25200 nM (inactive)	27000 nM (inactive)	> 100000 nM (inactive)	> 100000 nM (inactive)	52400 nM (inactive)	2330 nM (inactive)	18700 nM (inactive)	24100 nM (inactive)	14600 nM (inactive)	5430 nM (inactive)
CCCCCCCCC/C=C/C=C/C(=O)NCC(=O)NC1C(O)C(O)C(Nc2ncnc3[nH]cnc23)OC1C(O)CO (stereo unspecified)	0.23 nM (active)	1 nM (active)	158 nM (active)	0.509 nM (active)	1.8 nM (active)	4.12 nM (active)	23 nM (active)	21.1 nM (active)	0.0488 nM (active)	8.69 nM (active)	1.1 nM (active)	1 nM (active)	1.75 nM (active)	3.88 nM (active)	4.68 nM (active)	< 10 nM (active)	1.15 nM (active)	2.08 nM (active)	1.25 nM (active)	4.01 nM (active)
